Source: patent US4338330A, “Benzimidazole derivatives, their use, and compositions containing these derivatives” (Continental Pharma, priority 1979, dated 1982)
Like-named read-outs stand apart in the source and are kept apart here.

Tests used:
[1] = system: β1 cardiac receptors versus β2 tracheal receptors; assay: Cardioselectivity (auricles versus trachea); parameters: species or system guinea pig; settings: from difference of pA2 on auricles and trachea
Method: The effect on β1 cardiac receptors is measured by inhibition of the chronotropic response to noradrenaline of guinea pig auricles and of the inotrope response to isoproterenol of guinea pig left auricles which were electrically stimulated. The cardioselectivity is appreciated by measuring the antagonist effect at the level of β2 receptors of the guinea pig trachea. To this end, a tracheal chain is contracted by a maximum concentration of histamine and inhibition of relaxation by isoproterenol is measured. The values calculated for cardioselectivity are obtained by considering the difference between pA2 values of the chronotrope response and the relaxation on the one hand (1st column) and of the inotrope response and relaxation on the other hand (2nd column). For these various experiences, pA2 is calculated according to the Van Rossum method (Arch. Inern. Pharmacodyn., 143, 299-330, 1963).

[2] = system: guinea pig ileum contractions induced by histamine; assay: Antispasmodic activity against ileum contractions induced by histamine
Method: (§1) The antispasmodic activity of the studied substances was examined against guinea pig ileum contractions induced by histamine and acetylcholine.
(§2) These experiences allow to make it obvious an antihistaminic, anticholinergic or musculotrope activity. The response to the contracting agent (sub-maximum concentration) is obtained every 5 minutes before and after injection of increasing concentrations of tested products (10^-7 M to 10^-4 M). The inhibition percentage under the influence of tested products is calculated and the theoretical concentration giving 50% of inhibition is graphically determined for each experience. These values are expressed in -log CI50 (M).

[3] = Antihypertensive activity, oral, unanesthetized spontaneously hypertensive rats; type: in vivo
Method: […] Only rats having a systolic pressure of 180 to 220 mm Hg are used. Two rats are used by product. The treatments are administered without the knowledge of the person making the measure.
The antihypertensive effects were recorded according to a score followed by an index. The scoring system is as follows.
The index is calculated by multiplying the systolic pressure difference (cmHg) measured every 30 minutes after the treatment, by a coefficient of 1 to 6 corresponding to times of 30 to 180 minutes.

[4] = system: chronotropic response to noradrenaline of isolated guinea pig auricles; assay: β-lytic effect on the chronotropic response to noradrenaline of isolated auricles
Method: (§3) The β-lytic effect was searched on the chronotropic response to noradrenaline of isolated guinea pig auricles. Auricles were incubated for 20 minutes in a Tyrode solution at 29° C. in the presence of the substance to be tested at the concentration of 10^-6 M. A positive (+) or negative (-) chronotrope effect of the substance was noted using the following scores:
Then, the chronotrope effect of cumulative increasing concentrations of noradrenaline was recorded. The pD2 (-log CE50) value was calculated. A score of β-lytic activity of the substance was given as follows:
If the score at concentration of 10^-6 M was 3 or 4, the effect of the substance was examined at concentration of 10^-7 M and a score was recorded according to the same procedure.

[5] = system: guinea pig ileum contractions induced by acetylcholine; assay: Antispasmodic activity against ileum contractions induced by acetylcholine
Method: as §1, §2

[6] = LD50 in mice, oral (Lichtfield and Wilcoxon method); type: in vivo
Method: LD50 were determined according to the Lichtfield and Wilcoxon method (J. Pharmacol. Exp. Ther. 96, 99, 1949) and expressed in mg/kg. The products were administered to mice orally.

[7] = Peripheral vasodilator activity, anesthetized dog, femoral arterial circulation; type: in vivo; settings: 30 μg/kg injected directly
Method: The peripheral vasodilator activity was measured on anesthetized dog at the level of femoral arterial circulation. To this end, the femoral artery the collaterals of which have been ligated is perfused at constant rate with blood taken from aorta. The perfusion pressure measured at the level of the femoral artery thus varies as a function of the resistance of the perfused area. The tested products and the corresponding solvents are directly injected at the dose of 30 μg/kg. The cardiac output being maintained constant, a vasodilation is thus measured by a decrease of the perfusion pressure. The latter is scored in comparison with the action of papaverine, considered as a reference and injected one time by group of 4 products. When interesting, the products are tested with other doses under the same conditions.
The vasodilator activity is appreciated as follows: […]

[8] = system: isolated guinea pig auricles; assay: Chronotrope effect of the substance on isolated auricles; settings: 10^-6 M, 20 minutes, Tyrode, 29° C.
Method: as §3, with “scores: […]” for “scores:”

[9] = 60 mg/kg oral, spontaneously hypertensive rats
[10] = 60 mg/kg oral, systolic pressure difference (cmHg) every 30 min multiplied by time coefficient 1 to 6
[11] = mouse, in vivo, po, read-out: LD50

Structure (SMILES)	times more active on β cardiac receptors than on β2 receptors [1] [times]	Antispasmodic activity, Hist. (-log CI50 (M)) [2]	Antihypertensive activity (score) [3, 9]	Antihypertensive activity (index) [3, 10]	β-lytic effect (score) ([4]; 10^-6 M)	Antispasmodic activity, Ac. Chol. (-log CI50 (M)) [5]	LD50 [6, 11] [mg/kg]	Peripheral vasodilator activity [7]	Chronotrope effect (score) [8]	Antihypertensive activity (index) ([3]; at 10 mg, oral)	Antihypertensive activity (score) ([3]; at 10 mg, oral)	LD50 [6] [mg/kg]	β-lytic effect (score) ([4]; 10^-7 M)
COCCc1ccc(OCC(O)CNC(C)C)cc1 (centres unmarked) [Metroprolol, reference compound]	65												
CC(CCc1ccccc1)NCC(O)COc1ccc(-c2nc3ccccc3[nH]2)cc1 (centres unmarked) [Compound 7]		6.25 -log CI50 (M)	+ (reduction of 10 to 20 mm Hg)	18	0 (if pD2 ≥6.81)	6.23 -log CI50 (M)	> 3000	active	0 (if the frequency modification was comprised between +6 and -6)				
OC(CNCCCCSc1ccccc1)COc1ccc(-c2nc3ccccc3[nH]2)cc1 (centres unmarked) [Compound 23]		6,05 -log CI50 (M)	0 (reduction <10 mm Hg)		0 (if pD2 ≥6.81)	5,74 -log CI50 (M)		active	0 (if the frequency modification was comprised between +6 and -6)				
OC(CNCCOc1ccccc1)COc1ccc(-c2nc3ccccc3[nH]2)cc1 (centres unmarked) [Compound 3, 2-{4-[3-(2-phenoxyethylamino)-2-hydroxypropoxy]phenyl}benzimidazole]		6.52 -log CI50 (M)	+++ (reduction of 30 to 50 mm Hg)	50	2 (if 6.40≥pD2 ≥6.01)	6.43 -log CI50 (M)	> 3000	active	0 (if the frequency modification was comprised between +6 and -6)				
OC(CNCCCCc1ccccc1)COc1ccc(-c2nc3ccccc3[nH]2)cc1 (centres unmarked) [Compound 6]		6.89 -log CI50 (M)	0 (reduction <10 mm Hg)		0 (if pD2 ≥6.81)	7.12 -log CI50 (M)	> 3000	active	-1				
CC(C)NCC(O)COc1ccc(-c2nc3ccccc3[nH]2)cc1 (centres unmarked) [Compound 11, 2-[4-(3-isopropylamino-2-hydroxypropoxy)phenyl]benzimidazole (dihydrated glucuronate)]		4.52 -log CI50 (M)			4 (if pD2 ≤5.50)	4.30 -log CI50 (M)			1	51	+++ (reduction of 30 to 50 mm Hg)	1494	
CC(C)NCC(O)COc1ccc(-c2nc3ccccc3[nH]2)cc1 (centres unmarked) [Compound 12, 2-[4-(3-isopropylamino-2-hydroxypropoxy)phenyl]benzimidazole]		4.60 -log CI50 (M)	++++ (reduction>50 mm Hg)	160	4 (if pD2 ≤5.50)	4.75 -log CI50 (M)			0 (if the frequency modification was comprised between +6 and -6)			1950	2 (if 6.40≥pD2 ≥6.01)
CC(C)(C)NCC(O)COc1ccc(-c2nc3ccccc3[nH]2)cc1 (centres unmarked) [Compound 4, 2-[4-(3-t-butylamino-2-hydroxypropoxy)phenyl]benzimidazole]		5.64 -log CI50 (M)	++++ (reduction>50 mm Hg)	192	3 (if 6.00≥pD2 ≥5.51)	5.72 -log CI50 (M)	1420		0 (if the frequency modification was comprised between +6 and -6)				1 (if 6.80≥pD2 ≥6.41)
